In brackets after ≈: the same amount, converted by molar mass.

The conditions of the series: buffer; pH 7.4; 200.0 µM.
Take `COc1ccc([N+](=O)[O-])c(OC)c1C(=O)NC(=O)Nc1nc(C)nc(C)n1`: the solubility (kinetic) is > 56.4 µg/mL. The result for `CSc1cccc(NC(=O)c2[nH]c(C)c(C(C)=O)c2C)c1` reads 7.3 µg/mL (≈ 24.1 µM); that for `O=C(NCc1cccc(Cl)c1)c1cc(=O)[nH]c2ccccc12`, 1.8 µg/mL (≈ 5.76 µM).

On to `O=C(Cn1ccc([N+](=O)[O-])n1)NCC1CCCO1` (stereo not drawn), for which the kinetic solubility is > 38.1 µg/mL. The value for `Cc1ccc(NC(=S)NCCN2CCOCC2)cc1F` was > 44.6 µg/mL; that for `CN(Cc1cccc([N+](=O)[O-])c1)Cc1cccc2ccccc12` was < 0.3 µg/mL. In the case of `CCN(CC)S(=O)(=O)c1cccc(NC2=NCC(C)S2)c1` (stereo not drawn), the solubility (kinetic) is > 49.1 µg/mL. The result for `CC(=O)N(C)c1ccc(NC(=S)NCC(C)C)cc1` reads > 41.9 µg/mL; that for `CCOC(=O)C1CCCCN1Cc1cn(C)nc1-c1ccccc1F` (stereo not drawn), > 51.8 µg/mL. On to `Cc1nc2ccccc2c(=O)n1-c1ccc(Br)cn1`, for which the kinetic solubility was > 47.4 µg/mL.

For `CCCCc1cc(=O)oc2cc(OCC(=O)N3CCOCC3)ccc12`, the solubility (kinetic) is 19.2 µg/mL (≈ 55.6 µM).

Turning to `COc1cccc(/C=C/c2[nH]c(=O)[nH]c(=O)c2[N+](=O)[O-])c1O`, the solubility (kinetic) was > 45.8 µg/mL.

For the compound `CCOc1ccccc1NC(=O)COC(=O)C1CCC(=O)N1` (stereo not drawn), the solubility (kinetic) was > 45.9 µg/mL. `CCN(CC)c1cc(Cl)c2nonc2c1N` returned a kinetic solubility of 8.5 µg/mL (≈ 35.3 µM). The result for `O=C(NCCCN1CCCC1=O)Nc1cc(Cl)ccc1Cl` reads > 49.5 µg/mL. With `O=C1CCCN1CCCNC(=S)Nc1ccc(F)c(Cl)c1`, the solubility (kinetic) was > 49.5 µg/mL. Consider `O=C1/C(=C/c2cccnc2)SC(=S)N1CCc1ccccc1`, for which the kinetic solubility is < 0.3 µg/mL. The compound `CCOC(=O)c1c(C)oc2cc(Cl)c(O)c(CN(C)C)c12` yielded a kinetic solubility of 43.9 µg/mL (≈ 141 µM). The value for `Clc1ccc(-c2ccnc(-n3cccc3)n2)s1` was < 0.2 µg/mL. In the case of `Cc1ccc(C2Nc3ccccc3C(=O)N2CCN2CCNC2=O)cc1` (stereo not drawn), the solubility (kinetic) was > 52.6 µg/mL. In turn, `CC1CCC(NC(=O)C2CC(=O)N(c3ccc(Cl)cc3)C2)CC1` (stereo not drawn) gave a solubility (kinetic) of 2.3 µg/mL (≈ 6.87 µM).

With `Cc1cccc(OCC(O)CN2CCc3ccccc3C2)c1.Cl` (stereo not drawn), the solubility (kinetic) is > 50.1 µg/mL.

`Cc1nc(NC(=O)CCc2ccccc2)sc1C` registered a kinetic solubility of 18.7 µg/mL (≈ 71.8 µM). The value for `O=c1[nH]c(=S)[nH]c2nc(-c3cccs3)cc(C(F)(F)F)c12` was 4.8 µg/mL (≈ 14.6 µM); that for `CC(NC(=O)CN1CCOCC1)c1ccccc1` (stereo not drawn) was > 37.2 µg/mL; that for `COC(=O)c1ccccc1S(=O)(=O)N1CCC(C(=O)Nc2ccc(N3CCOCC3)cc2)CC1` was > 73.1 µg/mL.

`O=C(CN1C(=O)NC2(CCCC2)C1=O)Nc1ccc(Cl)cc1F` came in with a kinetic solubility of 49.8 µg/mL (≈ 147 µM). The value for `Cc1ccc(-c2csc(NC(=O)c3ccccc3F)c2C(=O)O)cc1` was > 53.3 µg/mL; that for `Cc1cc(C)cc(C(=O)N2CCN(c3ccccn3)CC2)c1` was 42.7 µg/mL (≈ 145 µM); that for `CC(=O)N/C(=C\c1ccc(Cl)cc1)C(=O)O` was 34.7 µg/mL (≈ 145 µM). The result for `CCOC(=O)N1CCN(S(=O)(=O)c2ccc3[nH]c(=O)oc3c2)CC1` reads 45.6 µg/mL (≈ 128 µM); that for `CS(=O)(=O)N1CCC(C(=O)Nc2ccc(Cl)cc2)CC1`, 13.4 µg/mL (≈ 42.3 µM). The result for `Cc1ccc2[nH]c(CNC(=O)c3ccccc3F)cc2c1` reads 5.4 µg/mL (≈ 19.1 µM). The compound `O=C(Nc1ccon1)Nc1cccc(Cl)c1Cl` registered a solubility (kinetic) of 1.9 µg/mL (≈ 6.98 µM). The value for `Cc1cc(Oc2ccc(OCC(N)=O)nn2)nc(Cl)n1` was > 44.4 µg/mL; that for `O=C(CSc1ccc(-c2ccc(F)cc2)nn1)N1CCOCC1` was > 50 µg/mL; that for `CCC(C)Nc1nc(N)c([N+](=O)[O-])c(N2CCCCCC2)n1` (stereo not drawn) was 29.1 µg/mL (≈ 94.4 µM). The value for `Cc1ccc(Cn2c(=O)n(C)c(=O)c3sccc32)cc1` was 1.2 µg/mL (≈ 4.19 µM); that for `COc1ccc(CNC(=O)c2ccc[nH]2)cc1Cl` was > 39.7 µg/mL; that for `OCCSc1nc(N2CCOCC2)nc(N2CCOCC2)n1` was > 49.1 µg/mL. `COc1ccc(S(=O)(=O)Nc2ccc(C)cn2)cc1`: the kinetic solubility is 25.4 µg/mL (≈ 91.3 µM).

Consider `Cc1nn(C)c(C)c1NC(=O)COc1ccc(Cl)cc1`, for which the kinetic solubility was > 44.1 µg/mL. `COc1ccc(NC(=O)C2CC(=O)N=C(N)S2)cc1` (stereo not drawn): the solubility (kinetic) is > 41.9 µg/mL. The value for `O=C(NC(=S)N1CCN(C/C=C/c2ccccc2)CC1)c1cccnc1` was > 55 µg/mL; that for `COc1ccc(OC)c(C(O)c2nc3ccccc3n2C)c1` (stereo not drawn) was > 44.8 µg/mL. `COc1ccc(NC(=O)NCc2cccnc2)cc1`: the kinetic solubility was > 38.6 µg/mL. Compound `COc1ccccc1N(CC(=O)NC1CCCCC1C)S(=O)(=O)c1cccs1` (stereo not drawn) came in with a solubility (kinetic) of 2 µg/mL (≈ 4.73 µM).

Take `COCc1cc(=O)[nH]c(-c2ccc(C(F)(F)F)cc2)n1`: the solubility (kinetic) was > 42.6 µg/mL. The compound `Cc1ccccc1SCC(=O)OCC(=O)N1CC(=O)Nc2ccccc21` gave a solubility (kinetic) of 11.6 µg/mL (≈ 31.3 µM). The value for `O=C(O)c1ccc(S(=O)(=O)NCC2CCCCC2)cc1` was > 44.6 µg/mL. The result for `COC(=O)CN(C#N)c1nc(NCc2ccccc2)nc(OC)n1` reads > 49.2 µg/mL. The result for `CC(Sc1nc2ncc(Cl)cc2[nH]1)C(=O)Nc1ccc(C(N)=O)cc1` (stereo not drawn) reads 9.3 µg/mL (≈ 24.7 µM).

As to `CC(C)[C@H](NC(=O)c1cccc(S(=O)(=O)N2CCOCC2)c1)C(=O)NCc1ccc(F)cc1`, the kinetic solubility worked out at 8 µg/mL (≈ 16.8 µM).

`COc1ccc(-c2nc3ccccc3nc2-c2ccccc2)cc1OC` came in with a kinetic solubility of 11 µg/mL (≈ 32.1 µM).

For `O=C(CSCc1ccccc1F)NCc1ccccc1`, the solubility (kinetic) was > 43.4 µg/mL. The value for `COc1ccc(NC(=O)c2cc(F)cc(F)c2)cc1S(=O)(=O)N1CCCCC1` was 5.1 µg/mL (≈ 12.4 µM); that for `COCc1ccc(C(=O)NC2CCSc3ccccc32)cc1` (stereo not drawn) was 16.8 µg/mL (≈ 53.6 µM). `CCOC(=O)c1ccc(N2C(=O)C3CCCN3C2=S)cc1` (stereo not drawn) gave a kinetic solubility of 41 µg/mL (≈ 135 µM). For the compound `O=C(Nc1ccccc1)Oc1cccc(Br)c1`, the kinetic solubility is 35.9 µg/mL (≈ 123 µM).

Consider `CCOc1ccc(C(=O)NC2CC(C)(C)NC(C)(C)C2)cc1.Cl`, for which the solubility (kinetic) was > 51.1 µg/mL. As to `Cc1cnc(NC(=O)[C@H](C)N2C(=O)C3CCCCC3C2=O)s1` (stereo partly drawn), the solubility (kinetic) was > 48.2 µg/mL. Compound `O=C(Nc1ccccc1)Nc1ccccc1C(=O)NCC1CC1` showed a kinetic solubility of 5.1 µg/mL (≈ 16.5 µM). `O=C1NC(=O)c2cc([N+](=O)[O-])cc3cccc1c23` gave a kinetic solubility of 6.3 µg/mL (≈ 26 µM). The result for `CCN1CCN(Cc2cc3c(cc2[N+](=O)[O-])OCO3)CC1` reads 41.1 µg/mL (≈ 140 µM). Turning to `C=CCN1C(=O)C(=O)N(Cc2nc3ccccc3s2)C1=O`, the kinetic solubility is > 45.2 µg/mL. The result for `C=CCC1(CC=C)CCCN1Cc1nc(COc2ccccc2)no1` reads 8.3 µg/mL (≈ 24.5 µM); that for `CCCNC(=O)C/C(C)=N/NC(=O)C(=O)Nc1ccccn1`, > 45.8 µg/mL; that for `Cc1ccccc1OC(=O)c1cccnc1`, 28.4 µg/mL (≈ 133 µM). The value for `Br.CCCCCCCCn1ccc(=N)cc1` was > 43.1 µg/mL; that for `CC1(C)C2CCC1(C)C(OC(=O)C[n+]1ccccc1)C2.[Cl-]` (stereo not drawn) was 39 µg/mL; that for `CCCN(C(=O)CCl)C1=CCCCC1` was 31 µg/mL (≈ 144 µM). Compound `CCOC(=O)CN1C(=O)C2(OCCCO2)c2cc(Br)ccc21` had a solubility (kinetic) of 31.5 µg/mL (≈ 85.1 µM).

`CC(NC(=S)NC1CCC(C(C)(C)C)CC1)c1ccccc1` (stereo not drawn): the solubility (kinetic) was < 0.3 µg/mL. Consider `Cc1cc(OCC(=O)N2CCOCC2)ccc1[N+](=O)[O-]`, for which the solubility (kinetic) was > 42 µg/mL. In the case of `CCOc1ccc(S(=O)(=O)NCCCl)cc1`, the kinetic solubility was > 39.6 µg/mL. The value for `CCOc1ccc(Nc2nc(NCC(=O)O)nc(N)c2[N+](=O)[O-])cc1` was > 52.2 µg/mL; that for `CC1(CCc2ccccc2)NC(=O)N(CC(=O)Nc2ccc(OC(F)F)cc2)C1=O` (stereo not drawn) was 11.4 µg/mL (≈ 27.3 µM). The value for `COc1ccc(-c2noc(CCC(=O)NCC3CCCO3)n2)cc1` (stereo not drawn) was > 49.7 µg/mL. The result for `c1ccc(SCc2nc3ccccc3s2)nc1` reads 17.8 µg/mL (≈ 68.9 µM); that for `Cc1nc(Cl)c(Cl)n1CCOc1ccccc1`, > 40.7 µg/mL; that for `CCOC(=O)NC(=O)c1cn(-c2ccc(OC)cc2)c(=O)[nH]c1=O`, 9.1 µg/mL (≈ 27.3 µM).

`Cc1cccc(N2CCN(Cc3cnc(Cl)s3)CC2C)c1` (stereo not drawn) came in with a solubility (kinetic) of 23.4 µg/mL (≈ 72.7 µM). Regarding `CC(=O)Nc1ccc(CCc2nc3ccccc3[nH]2)cc1`, the kinetic solubility was > 41.9 µg/mL. The result for `CC1CCCCC1NC(=O)c1ccco1` (stereo not drawn) reads > 31.1 µg/mL; that for `CC(=O)c1cccc(NC(=S)NCCc2ccc(F)cc2)c1`, > 47.5 µg/mL. The result for `Cc1ccc(S(=O)(=O)NCC(=O)Nc2cccc([N+](=O)[O-])c2)cc1` reads 22.7 µg/mL (≈ 65 µM); that for `O=C(NCCc1ccccc1)c1cnc(Cl)c(Cl)c1`, 11.6 µg/mL (≈ 39.3 µM). In the case of `COc1ccc(/C=C/C(=O)N2CCCC2)cc1OC`, the kinetic solubility is > 39.2 µg/mL. In the case of `COc1ccc(-c2cc(C(=O)NN3CCOCC3)c3ccccc3n2)cc1OC`, the kinetic solubility is > 59 µg/mL. In turn, `CCOC(=O)c1c(NC(=O)Nc2ccc(C)cc2)sc2c1CCN(C)C2` showed a solubility (kinetic) of 1.5 µg/mL (≈ 4.02 µM). The value for `C=CC[N+]1(C)C2CCC1CC(O)C2.[Br-]` (stereo not drawn) was > 39.3 µg/mL; that for `O=C(NC1CCCCCC1)C(=O)NC1CC1` was 19.8 µg/mL (≈ 88.3 µM); that for `O=C(Cc1ccc(F)cc1)N1CCN=C1SCc1cccc([N+](=O)[O-])c1` was 9.4 µg/mL (≈ 25.2 µM). The result for `COc1ccc(C(=O)NCC(=O)N2CCN(C(=O)c3ccco3)CC2)cc1[N+](=O)[O-]` reads > 62.5 µg/mL.

As to `O=C(O)C1CSC2(c3ccc(F)cc3)CCC(=O)N12` (stereo not drawn), the solubility (kinetic) was > 42.2 µg/mL. The value for `CCCCn1c(O)c(C(C)=NCc2cccnc2)c(=O)[nH]c1=O` was > 47.5 µg/mL; that for `Cc1nc(N)c(C#N)c(-c2ccc3c(c2)OCO3)c1C` was 0.5 µg/mL (≈ 1.87 µM); that for `CCOC(=O)C1CCN(C(=S)NC(=O)c2cccs2)CC1` was > 49 µg/mL. The result for `CCC1(C)Cc2ccccc2-c2nc(SC)[nH]c(=O)c21` (stereo not drawn) reads < 0.3 µg/mL. The result for `Cc1cc(=O)oc2cc(OCC(=O)N3CC[C@@]4(O)CCCC[C@H]4C3)ccc12` reads > 55.7 µg/mL; that for `CCc1nnc(NC(=O)CN2CCCC(C)C2)s1` (stereo not drawn), > 40.3 µg/mL; that for `COc1ccccc1N1C(=O)c2ccccc2NC1c1ccc(O)cc1` (stereo not drawn), 12.8 µg/mL (≈ 37 µM). For `CCOC(=O)N1CCN(Cc2ccc3ccccc3c2)CC1`, the solubility (kinetic) worked out at 26.9 µg/mL (≈ 90.2 µM).

In general, solubility (kinetic) refers to the concentration staying in solution when a stock, usually in DMSO, is diluted into the medium.

These data come from PubChem BioAssay AID1996.
